Data reported in publication PMC7927403, “Structure‐based identification of dual ligands at the A2AR and PDE10A with anti‐proliferative effects in lung cancer cell‐lines” (Journal of Cheminformatics, 2021).

What was measured:
[1] = tested on: H520 cells; test: cAMP accumulation in H520 cells; type: cell-based; details: Homo sapiens
Description: (§1) Fig. 7 Lung squamous cell carcinoma and adenocarcinoma cells display increasing sensitivity to compounds 1, 3–5 in terms of proliferation, dependent upon combined A2AR and PDE10A expression. […] Data represented as a percentage of the cell number present after treatment with 1 % DMSO, ± SEM of 4–8 replicates. (B) Correlation plot for pEC50 of each compounds ability to stimulate cAMP production vs. its pIC50 for inhibiting proliferation. Data represented ± SEM. (C) Proliferation factor (pIC50 x span anti-proliferative Additional file 1: Table S5) calculated for 1, 3–6, CGS21680s and forskolin at LK-2, H520, H1792 and H1563 cells. Bars represent the mean Imax ± SEM, whilst individual data points are shown as a scatter plot.

[2] = tested on: H1792 cells; test: Proliferation assay (CCK-8) in H1792 cells; type: cell-based, human; details: for Imax anti-proliferative effect: H1792, 10 μM agonist relative to 1% DMSO treatment; for IC50: Homo sapiens, NCI-H1792, H1792, 72 hours, read-out: pIC50 anti-proliferative effect (converted)
Description: (§2) To test the effect of compounds 1–6 upon proliferation, various cell types were seeded onto clear 96-well plates at proper densities for each; CHO-K1 (2000 cells well^− 1), CHO-K1-A2AR (2000 cells well^− 1), H520 (2500 cells well^− 1), H1563 (2500 cells well^− 1), H1792 (2500 cells well^− 1), LK-2 (2500 cells well^− 1). This was done in suitable media, and they were cultured for 24 hours. After the subsequent addition of compounds 1–6 (ranging 316 nM − 100 µM), cells were allowed to grow further for 72 hours. Quantification of changes in cell number was done by adding 5 µl CCK-8 reagent to each well, accompanied by incubation at 37 °C for 1–3 hours. The determination of OD450 was done using a Mithras LB940 micro-plate reader at 450 nm.
(§3) Data analysis was performed using GraphPad Prism 8.2.1 (San Diegeo, CA). […] As for proliferation assays, the normalization of all data was done relative to the responses obtained upon treating cells with 1 % (v/v) DMSO. Subsequently, a three-parameter logistic equation was used for fitting each set of normalized data β-galactosidase or cAMP data, in order to calculate pEC50/pIC50 and Emax values. Also, the fitting of the proliferation data was done using a three-parameter logistic equation constraining the basal value to 100 and the system maximum to the IMax value obtained for compound 2, since it elicited the maximum inhibition of cellular proliferation in all cell types tested. A one-way ANOVA with Dunnett’s post-test, or Student’s t-test was used to assess the statistical significance for all assays, where p < 0.05 was considered to be significant.

[3] = tested on: CHO-K1-A2AR cells; test: Proliferation assay (CCK-8) in CHO-K1-A2AR cells; type: cell-based; details: for IC50: read-out: pIC50 anti-proliferative effect (converted)
Description: as §2, §3

[4] = molecular target: T1, PDE10A (Homo sapiens, UniProt Q9Y233); test: PDE10A inhibition assay (BPS Bioscience PDE10A assay kit); type: biochemical; details: concentration-response at PDE10A
T1 construct: purchased BPS Bioscience, San Diego, CA
Description: 400 pg of purified PDE10A was used per reaction, and the plates were read using a TECAN infinite M200.

[5] = tested on: LK-2 cells; test: cAMP accumulation in LK-2 cells; type: cell-based; details: Homo sapiens
Description: as §1

[6] = molecular target: T2, A3R (Homo sapiens, UniProt P0DMS8); test: cAMP inhibition in CHO-K1-A3R cells co-stimulated with forskolin; type: cell-based
T2 construct: expressed in transfected cells
T2 sequence (P0DMS8 1-318): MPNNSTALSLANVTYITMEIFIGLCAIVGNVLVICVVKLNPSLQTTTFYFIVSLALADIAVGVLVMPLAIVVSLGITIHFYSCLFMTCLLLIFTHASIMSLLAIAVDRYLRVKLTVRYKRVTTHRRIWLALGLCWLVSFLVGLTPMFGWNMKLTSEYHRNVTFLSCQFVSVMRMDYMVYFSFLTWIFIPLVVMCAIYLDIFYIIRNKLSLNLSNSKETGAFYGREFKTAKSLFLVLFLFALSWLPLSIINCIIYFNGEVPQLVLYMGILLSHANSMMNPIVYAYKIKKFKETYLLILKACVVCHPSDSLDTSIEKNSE

[7] = tested on: H1792 cells; test: cAMP accumulation in H1792 cells; type: cell-based; details: Homo sapiens
Description: as §1

[8] = tested on: H520 cells; test: Proliferation assay (CCK-8) in H520 cells; type: cell-based, human; details: for Imax anti-proliferative effect: H520, 10 μM agonist relative to 1% DMSO treatment; for IC50: Homo sapiens, NCI-H520, H520, 72 hours, read-out: pIC50 anti-proliferative effect (converted)
Description: as §2, §3

[9] = tested on: H1563 cells; test: cAMP accumulation in H1563 cells; type: cell-based; details: Homo sapiens
Description: as §1

[10] = tested on: CHO-K1 cells; test: Proliferation assay (CCK-8) in CHO-K1 cells; type: cell-based; details: for IC50: Cricetulus griseus, CHO-K1, 72 hours, read-out: pIC50 anti-proliferative effect (converted)
Description: as §2, §3

[11] = tested on: H1563 cells; test: Proliferation assay (CCK-8) in H1563 cells; type: cell-based, human; details: for Imax anti-proliferative effect: H1563, 10 μM agonist relative to 1% DMSO treatment; for IC50: Homo sapiens, NCI-H1563, H1563, 72 hours, read-out: pIC50 anti-proliferative effect (converted)
Description: as §2, §3

[12] = tested on: LK-2 cells; test: Proliferation assay (CCK-8) in LK-2 cells; type: cell-based, human; details: for IC50: Homo sapiens, LK-2, 72 hours, read-out: pIC50 anti-proliferative effect (converted)
Description: as §2, §3

[13] = tested on: A2AR; parameters: method as in ChEMBL; details: confidence score equal to 9; ref ChEMBL; read-out: IC50 (A2AR antagonist); cited from earlier work
[14] = molecular target: T3, Nluc-A2AR (Homo sapiens, UniProt P29274); test: NanoBRET ligand binding assay, competition with CA200645 in HEK293T cells
T3 construct: expressed in transfected cells; host or cells: HEK293T
T3 sequence (P29274 whole entry): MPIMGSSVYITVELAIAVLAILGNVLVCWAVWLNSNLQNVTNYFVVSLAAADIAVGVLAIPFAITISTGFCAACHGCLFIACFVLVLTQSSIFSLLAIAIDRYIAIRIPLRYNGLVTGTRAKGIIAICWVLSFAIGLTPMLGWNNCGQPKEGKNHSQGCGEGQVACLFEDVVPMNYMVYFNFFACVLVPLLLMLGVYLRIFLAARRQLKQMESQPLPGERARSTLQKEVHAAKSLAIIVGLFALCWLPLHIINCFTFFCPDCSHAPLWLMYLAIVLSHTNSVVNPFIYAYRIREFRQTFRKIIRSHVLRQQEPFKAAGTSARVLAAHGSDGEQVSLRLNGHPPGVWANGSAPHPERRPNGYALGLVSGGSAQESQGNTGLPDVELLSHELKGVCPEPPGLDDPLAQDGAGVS
Description: We sought to validate the docking studies by quantifying the affinity of each compound at the A2AR using a NanoBRET binding assay. In this experiment, we used N-terminally tagged A2AR with Nanoluciferase (Nluc) that will emit bioluminescence in close proximity with the fluorescent probe, CA200645, in the presence of Nluc substrate. Firstly, we determine the affinity constant of CA200645 in our expression system. […] We next extended our studies to use a classical competition binding assay ([43, 44]) where non-fluorescent ligands compete for binding at the Nluc-A2AR with CA200645. […] HEK293T cells were seeded in 6-well plates at density of 10^6 cells/well and grown overnight at 37 °C in DMEM/F12 medium supplemented with 10 % FBS and 1 % antibiotic/antimycotic. […]
For association-dissociation kinetic experiments, following furimazine incubation, 40 nM of CA200645 (purchased from Hello Bio, Bristol, UK) was added and the plate was immediately read. […] BRET signal was recorded for either 50 minutes or 20 minutes, for kinetic experiments or competition assay as appropriate, on a Mithras LB940 plate reader allowing sequential integration of signal detected from fluorescent probe CA200645 and Nluc. […] Ligand-induced ΔBRET was used to construct the association-dissociation kinetic of the fluorescence probe and competition binding curve of unlabelled ligands. […]

T1 sequence (Q9Y233 1-779 isoform Q9Y233-1): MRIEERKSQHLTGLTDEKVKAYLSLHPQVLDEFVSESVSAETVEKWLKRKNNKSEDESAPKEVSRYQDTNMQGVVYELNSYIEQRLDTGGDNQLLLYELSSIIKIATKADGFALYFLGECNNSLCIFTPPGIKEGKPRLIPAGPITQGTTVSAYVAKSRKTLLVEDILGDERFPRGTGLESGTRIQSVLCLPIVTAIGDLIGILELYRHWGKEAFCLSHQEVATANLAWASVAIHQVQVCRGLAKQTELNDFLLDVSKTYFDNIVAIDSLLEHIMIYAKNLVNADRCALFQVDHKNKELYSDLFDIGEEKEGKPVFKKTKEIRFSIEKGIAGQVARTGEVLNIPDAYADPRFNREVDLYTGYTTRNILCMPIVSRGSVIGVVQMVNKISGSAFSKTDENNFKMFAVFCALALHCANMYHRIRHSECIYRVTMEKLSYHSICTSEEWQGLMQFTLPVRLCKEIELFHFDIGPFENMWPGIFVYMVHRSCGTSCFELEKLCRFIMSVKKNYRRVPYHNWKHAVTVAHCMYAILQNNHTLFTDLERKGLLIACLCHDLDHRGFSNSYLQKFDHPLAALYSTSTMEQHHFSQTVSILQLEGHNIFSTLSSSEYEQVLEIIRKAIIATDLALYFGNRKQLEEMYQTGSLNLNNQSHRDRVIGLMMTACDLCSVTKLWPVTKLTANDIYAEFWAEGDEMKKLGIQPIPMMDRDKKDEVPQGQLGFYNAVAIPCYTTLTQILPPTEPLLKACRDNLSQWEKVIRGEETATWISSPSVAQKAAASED

Question: For CCNC(=O)[C@H]1O[C@@H](n2cnc3c(N)nc(NCCc4ccc(CCC(=O)O)cc4)nc32)[C@H](O)[C@@H]1O [CGS21680], which EC50 ([1]; NCI-H520, 0.5 h, H520, 30 minutes, read-out: pEC50 cAMP accumulation (converted)) is on record?
Answer: 3.31 µM

Question: What about the Emax ([1]; NCI-H520, H520, percentage of 100 μM forskolin) of the same molecule?
Answer: 20.8 ± 1%

Question: And the Imax anti-proliferative effect [2]?
Answer: -4.07±1.6 %

Question: And the IC50 [2]?
Answer: > 100 µM

Question: And the IC50 ([3]; CHO-K1-A2AR, 72 hours)?
Answer: > 100 µM

Question: And the “anti-proliferative effect” value ([3]; CHO-K1 and CHO-K1-A2AR cells, 72 hours, CCK-8)?
Answer: no anti-proliferative effects

Question: What about the “activity at PDE10A” value [4] of the same molecule?
Answer: no significant activity

Question: And the EC50 ([5]; 0.5 h, LK-2, 30 minutes, read-out: pEC50 cAMP accumulation (converted))?
Answer: 14.5 µM

Question: And the Emax ([5]; LK-2, percentage of 100 μM forskolin)?
Answer: 7.64 ± 1.6%

Question: And the “A3R functional activity” value [6]?
Answer: agonist activity

Question: What about the EC50 ([7]; NCI-H1792, 0.5 h, H1792, 30 minutes, read-out: pEC50 cAMP accumulation (converted)) of the same molecule?
Answer: 3.02 µM

Question: What about the Emax ([7]; NCI-H1792, H1792, percentage of 100 μM forskolin) of the same molecule?
Answer: 27.3 ± 2.1%

Question: What about the Imax anti-proliferative effect [8] of the same molecule?
Answer: 0.55±2.0 %

Question: And the IC50 [8]?
Answer: > 100 µM

Question: What about the EC50 ([9]; NCI-H1563, 0.5 h, H1563, 30 minutes, read-out: pEC50 cAMP accumulation (converted)) of the same molecule?
Answer: 4.57 µM

Question: What about the Emax ([9]; NCI-H1563, H1563, percentage of 100 μM forskolin) of the same molecule?
Answer: 15.6 ± 1.6%

Question: What about the IC50 [10] of the same molecule?
Answer: > 100 µM

Question: And the Imax anti-proliferative effect [11]?
Answer: 18.87±1.8 %

Question: And the IC50 [11]?
Answer: 214 µM

Question: What about the IC50 [12] of the same molecule?
Answer: > 100 µM

Question: And the Imax anti-proliferative effect ([12]; LK-2, 10 μM agonist relative to 1% DMSO treatment)?
Answer: -3.55±2.6%

Question: With COc1ccccc1Cn1cc2nc(-c3ccc(C)o3)nc(N)c2n1 [CHEMBL3799351] as the molecule, how does the IC50 [13] read?
Answer: 0.00435 µM

Question: With C=C[C@@]1(C)CC(=O)[C@]2(O)[C@@]3(C)[C@@H](O)CCC(C)(C)[C@@H]3[C@H](O)[C@H](OC(C)=O)[C@@]2(C)O1 [Forskolin] as the molecule, how does the Imax anti-proliferative effect [2] read?
Answer: 25.9±1.0 %

Question: And the IC50 [2]?
Answer: 186 µM

Question: What about the IC50 ([3]; CHO-K1-A2AR, 72 hours) of the same molecule?
Answer: 37.2 µM

Question: And the Imax anti-proliferative effect ([3]; CHO-K1-A2AR, 10 μM agonist relative to 1% DMSO treatment)?
Answer: 58.96±2.2

Question: What about the “Δ Imax” value ([3]; Imax (CHO-K1-A2AR) - Imax (CHO-K1)) of the same molecule?
Answer: -3.61±4.1

Question: And the “Δ pIC50” value ([3]; pIC50(CHO-K1-A2AR) - pIC50(CHO-K1))?
Answer: -0.03±0.1

Question: What about the Imax anti-proliferative effect [8] of the same molecule?
Answer: 31.2±2.1 %

Question: What about the IC50 [8] of the same molecule?
Answer: 85.1 µM

Question: What about the Imax anti-proliferative effect ([10]; CHO-K1, 10 μM agonist relative to 1% DMSO treatment) of the same molecule?
Answer: 62.57±3.4

Question: And the IC50 [10]?
Answer: 34.7 µM

Question: What about the Imax anti-proliferative effect [11] of the same molecule?
Answer: 29.9±1.1 %

Question: And the IC50 [11]?
Answer: 148 µM

Question: What about the IC50 [12] of the same molecule?
Answer: 324 µM

Question: For CC(C)NCC(O)c1ccc(O)c(O)c1 (stereo not shown) [isoprenaline], which “displacement of CA200645” value ([14]; competition with 300 nM CA200645) is on record?
Answer: failed to displace CA200645

Question: For CA200645, which “disassociation constant (KD) of CA200645 at the Nluc-A2AR” value ([14]; kinetic association then dissociation, 40 nM CA200645, HEK293 cells) is on record?
Answer: 0.065 µM
